Measurements from EP2378291A1, “Lacosamide detection assay” (UCB Pharma GmbH, priority 2010, dated 2011).
Read-outs that look alike come from different tables or passages of the source.

How the values were obtained:
[1] = Clinical study: saliva and plasma samples taken in parallel, correlation of lacosamide concentrations; type: in vivo, human; details: for Kp: human, saliva
Procedure: One embodiment of the present disclosure relates to the use of saliva samples as a tool to assess the concentration of lacosamide in the body of a mammal, particularly a human being. […] Preferably, saliva samples should be taken at least about 1 hour, preferably at least about 2 hours after an actual administration of lacosamide to said mammal to allow a steady state concentration to form, and to allow the proportional distribution of lacosamide into the saliva.
Accordingly, one embodiment of the current invention relates to the use of a saliva sample to assess the concentration of lacosamide in the body of a mammal, particularly in the plasma of a patient This can be done based on the recognition that the concentration of lacosamide in saliva is about 1.17 times the concentration in plasma. Based on the measurement of lacosamide in saliva, the concentration in plasma can be easily assessed using the equation C plasma= C saliva x about 0.855 (see Example 3 in the experimental part). The determination of lacosamide in saliva should be done in the steady state, which is usually reached after about one hour to two hours after the last drug administration to the mammal/patient from which the saliva sample is to be taken.
In a clinical study saliva and plasma samples have been taken in parallel.
The concentrations of lacosamide can be calculated using the following equations: Saliva concentration of lacosamide = 0.065 + 1.1697*plasma concentration of lacosamide [formula] Plasma concentration of lacosamide = 0.855*saliva concentration of lacosamide [formula]
These equations were validated by comparing measured lacosamide plasma concentrations with plasma concentrations predicted from measured saliva concentrations.

[2] = Expected plasma Cmax at bid doses, used for individual dose adaptation; type: in vivo
Procedure: Based on the determination of the actual lacosamide concentration in plasma (Cmessured) measured at time t (in hours after actual administration) and the comparison with the target concentration, an individual dosing may be adapted according to the following formula dose_new = dose_old⋅(Cmax,expected ⋅e^(-0.05⋅t))/(Cmeasured ⋅e^(-0.05⋅1h)) [formula]
The expected Cmax is usually at about 5, 10, 15, or 20 µg/mL for dose 100, 200, 300, or 400 mg bid.

[3] = Lacosamide plasma concentration of a patient, HPLC-UV assay with internal standard; type: in vivo; details: human, patient taking 100 mg twice a day, sample 7 h after the last administration, read-out: measured lacosamide plasma concentration
Procedure: 100 µL of plasma are transferred into Eppendorf tubes.
Calibration samples are added 10 µL working solution.
Study samples are added 10 µL of working solution int standard
After mixing 300 µL of methanol were added, the mixture is vortexed again and centrifuged
10 minutes at room temperature. 70 µL of the supernatant were transferred into a autosamplervial.
15 µL were injected into the HPLC-system.
For calibration the mean response factor for the peakheight ratios at 10 µg/mL was calculated: • RF = peakheight lacosamide/ peakheight int. Std. • Concentration in samples were calculated: 10/RFcalibration*RFsample
A patient taking 100 mg twice a day is suffering from seizures. A sample is taken 7 h after the last administration of lacosamide. The measured lacosamide plasma concentration is 1.9 µg/mL. The newly requested Cmax is 5 µg/mL, and the new dose has to be dose_new = 100⋅(5⋅e^(-0.05⋅t))/(1.9⋅e^(-0.05⋅1h)) = 195 mg bid (dose has to be doubled) [formula]

Question: Which results are given for `COC[C@@H](NC(C)=O)C(=O)NCc1ccccc1` [Lacosamide, (R)-2-acetamido-N-benzyl-3-methoxypropionamide]?
Answer: correlation between lacosamide concentrations in saliva and plasma ([1]; Figure 2): excellent correlation; Kp ([1]; regression equation with intercept 0.065, read-out: slope of Saliva concentration of lacosamide versus plasma concentration of lacosamide): 1.17; Kp ([1]; steady state, about one to two hours after last administration, read-out: concentration of lacosamide in saliva relative to the concentration in plasma): ~1.17; Cmax ([2]; dose 100 mg bid): ~5000 ng/mL; Cmax ([2]; dose 200 mg bid): ~10000 ng/mL; Cmax ([2]; dose 300 mg bid): ~15000 ng/mL; Cmax ([2]; dose 400 mg bid): ~20000 ng/mL; concentration at 7 h [3]: 1900 ng/mL
